Residues, ends and D or L forms follow the SMILES beside them.
Each compound was assayed against T1, Ephrin type-B receptor 2 (Homo sapiens, UniProt P29323) (assay: Binding affinity at human EphB2 receptor by isothermal titration calorimetry).
T1 sequence (P29323 whole entry): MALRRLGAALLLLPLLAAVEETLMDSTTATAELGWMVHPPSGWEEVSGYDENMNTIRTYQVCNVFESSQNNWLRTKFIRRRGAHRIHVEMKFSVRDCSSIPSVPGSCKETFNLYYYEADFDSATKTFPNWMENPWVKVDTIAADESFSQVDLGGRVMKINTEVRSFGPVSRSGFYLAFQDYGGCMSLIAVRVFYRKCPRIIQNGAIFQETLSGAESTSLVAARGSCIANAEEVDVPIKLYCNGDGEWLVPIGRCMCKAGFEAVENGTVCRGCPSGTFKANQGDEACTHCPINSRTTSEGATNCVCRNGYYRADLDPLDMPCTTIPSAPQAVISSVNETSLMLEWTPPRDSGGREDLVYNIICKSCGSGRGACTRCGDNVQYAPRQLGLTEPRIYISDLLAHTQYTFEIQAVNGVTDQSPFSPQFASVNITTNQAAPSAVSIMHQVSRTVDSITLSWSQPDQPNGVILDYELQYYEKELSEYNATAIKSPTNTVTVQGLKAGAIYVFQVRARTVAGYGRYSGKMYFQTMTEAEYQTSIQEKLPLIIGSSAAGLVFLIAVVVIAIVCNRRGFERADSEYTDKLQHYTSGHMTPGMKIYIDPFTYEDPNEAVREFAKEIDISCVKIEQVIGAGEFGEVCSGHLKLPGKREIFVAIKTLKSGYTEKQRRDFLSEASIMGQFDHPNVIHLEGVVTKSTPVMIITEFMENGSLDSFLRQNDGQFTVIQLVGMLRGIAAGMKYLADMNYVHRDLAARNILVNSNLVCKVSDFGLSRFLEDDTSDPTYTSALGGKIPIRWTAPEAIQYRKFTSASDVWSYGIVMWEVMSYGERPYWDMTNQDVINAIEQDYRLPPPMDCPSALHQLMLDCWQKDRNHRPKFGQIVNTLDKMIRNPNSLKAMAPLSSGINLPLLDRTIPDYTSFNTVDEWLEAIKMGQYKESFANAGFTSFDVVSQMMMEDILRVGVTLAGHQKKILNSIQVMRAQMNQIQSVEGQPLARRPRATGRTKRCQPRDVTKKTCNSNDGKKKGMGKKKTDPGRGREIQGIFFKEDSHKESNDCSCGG

Kd [µM] | SMILES
> 50 | CC[C@H](C)[C@H](NC(=O)[C@H](Cc1c[nH]c2ccccc12)NC(=O)[C@H](CCC(=O)O)NC(=O)[C@H](CC(N)=O)NC(=O)[C@@H](N)CO)C(=O)N[C@@H](CCC(N)=O)C(=O)N1CCC[C@H]1C(=O)N[C@@H](C)C(=O)N[C@@H](CC(C)C)C(=O)N1CCC[C@H]1C(=O)N[C@@H](CCC(N)=O)C(=O)N[C@@H](Cc1cnc[nH]1)C(=O)O (H-SNEWIQPALPQH-OH)
> 50 | CC[C@H](C)[C@H](NC(=O)[C@H](Cc1c[nH]c2ccccc12)NC(=O)[C@H](CCC(=O)O)NC(=O)[C@H](CC(N)=O)NC(=O)[C@@H](N)CO)C(=O)N[C@@H](CCC(N)=O)C(=O)N1CCC[C@H]1C(=O)N[C@@H](Cc1cnc[nH]1)C(=O)N[C@@H](CC(C)C)C(=O)N1CCC[C@H]1C(=O)N[C@@H](CCC(N)=O)C(=O)N[C@@H](Cc1cnc[nH]1)C(=O)O (H-SNEWIQPHLPQH-OH)
> 50 | CC[C@H](C)[C@H](NC(=O)[C@H](Cc1c[nH]c2ccccc12)NC(=O)[C@H](CCC(N)=O)NC(=O)[C@H](CC(N)=O)NC(=O)[C@@H](N)CO)C(=O)NCC(=O)N1CCC[C@H]1C(=O)N[C@@H](C)C(=O)N[C@@H](CC(C)C)C(=O)N1CCC[C@H]1C(=O)N[C@@H](CCC(N)=O)C(=O)N[C@@H](Cc1cnc[nH]1)C(=O)O (H-SNQWIGPALPQH-OH)

More lines, now with the values behind:

SMILES | Kd [µM]
CC[C@H](C)[C@H](NC(=O)[C@@H]1CCCN1C(=O)CNC(=O)[C@H](CC(N)=O)NC(=O)[C@@H]1CCCN1C(=O)[C@H](CO)NC(=O)[C@H](Cc1ccccc1)NC(=O)[C@H](CC(C)C)NC(=O)[C@H](Cc1ccc(O)cc1)NC(=O)[C@H](CC(N)=O)NC(=O)[C@@H](N)[C@H](C)O)C(=O)N[C@@H](C)C(=O)N[C@@H](CCCN=C(N)N)C(=O)N[C@@H](C)C(=O)N[C@@H](Cc1c[nH]c2ccccc12)C(=O)O | > 50
CC[C@H](C)[C@H](NC(=O)[C@H](Cc1c[nH]c2ccccc12)NC(=O)[C@H](CCC(N)=O)NC(=O)[C@H](CC(N)=O)NC(=O)[C@@H](N)CO)C(=O)N[C@@H](CC(C)C)C(=O)N1CCC[C@H]1C(=O)N[C@@H](CCCN=C(N)N)C(=O)N[C@@H](CC(C)C)C(=O)N1CCC[C@H]1C(=O)N[C@@H](CCC(N)=O)C(=O)N[C@@H](Cc1cnc[nH]1)C(=O)O (H-SNQWILPRLPQH-OH) | > 50
CC[C@H](C)[C@H](NC(=O)[C@H](Cc1c[nH]c2ccccc12)NC(=O)[C@H](CCC(N)=O)NC(=O)[C@H](CC(N)=O)NC(=O)[C@@H](N)CO)C(=O)N[C@@H](CCC(N)=O)C(=O)N1CCC[C@H]1C(=O)N[C@@H](CCCN=C(N)N)C(=O)N[C@@H](CC(C)C)C(=O)N1CCC[C@H]1C(=O)N[C@@H](CCC(N)=O)C(=O)N[C@@H](Cc1cnc[nH]1)C(=O)O (H-SNQWIQPRLPQH-OH) | > 50
CC[C@H](C)[C@H](NC(=O)[C@H](Cc1c[nH]c2ccccc12)NC(=O)[C@H](CCC(N)=O)NC(=O)[C@H](CC(N)=O)NC(=O)[C@@H](N)CO)C(=O)N[C@@H](CO)C(=O)N1CCC[C@H]1C(=O)N[C@@H](CCCNC(=N)N)C(=O)N[C@@H](CC(C)C)C(=O)N1CCC[C@H]1C(=O)N[C@@H](CCC(N)=O)C(=O)N[C@@H](Cc1cnc[nH]1)C(=O)O (H-SNQWISPRLPQH-OH) | > 50

The compounds below were run against T2, Ephrin type-B receptor 2 (Mus musculus, UniProt P54763) (assay: Binding affinity at mouse EphB2 receptor by ELISA).
T2 sequence (P54763 whole entry): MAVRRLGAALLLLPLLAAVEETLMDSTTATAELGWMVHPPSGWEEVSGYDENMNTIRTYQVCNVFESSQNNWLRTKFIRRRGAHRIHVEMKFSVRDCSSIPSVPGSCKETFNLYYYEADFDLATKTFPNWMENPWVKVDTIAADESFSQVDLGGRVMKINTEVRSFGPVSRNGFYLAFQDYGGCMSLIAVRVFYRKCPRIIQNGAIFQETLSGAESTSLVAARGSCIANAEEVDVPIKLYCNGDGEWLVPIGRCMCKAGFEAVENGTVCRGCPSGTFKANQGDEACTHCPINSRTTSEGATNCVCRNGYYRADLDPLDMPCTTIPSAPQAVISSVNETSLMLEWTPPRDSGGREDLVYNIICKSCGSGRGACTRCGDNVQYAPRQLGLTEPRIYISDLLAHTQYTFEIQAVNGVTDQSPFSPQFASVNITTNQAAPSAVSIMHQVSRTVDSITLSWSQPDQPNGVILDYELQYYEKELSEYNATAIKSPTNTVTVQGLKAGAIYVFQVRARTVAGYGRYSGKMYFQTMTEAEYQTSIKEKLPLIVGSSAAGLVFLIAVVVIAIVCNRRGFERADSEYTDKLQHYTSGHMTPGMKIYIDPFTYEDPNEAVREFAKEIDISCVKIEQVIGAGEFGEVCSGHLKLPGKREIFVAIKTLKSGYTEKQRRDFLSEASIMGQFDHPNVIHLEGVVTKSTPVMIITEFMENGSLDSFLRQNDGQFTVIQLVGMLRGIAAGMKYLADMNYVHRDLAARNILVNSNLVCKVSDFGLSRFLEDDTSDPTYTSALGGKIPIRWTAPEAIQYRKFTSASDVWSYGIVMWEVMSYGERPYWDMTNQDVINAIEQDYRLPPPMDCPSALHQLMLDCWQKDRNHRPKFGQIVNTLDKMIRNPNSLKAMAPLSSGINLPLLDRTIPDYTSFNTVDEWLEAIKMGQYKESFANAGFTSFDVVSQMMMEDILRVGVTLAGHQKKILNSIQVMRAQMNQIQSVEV

SMILES | IC50 [µM]
CC[C@H](C)[C@H](NC(=O)[C@H](Cc1c[nH]c2ccccc12)NC(=O)[C@H](CCC(=O)O)NC(=O)[C@H](CC(N)=O)NC(=O)[C@@H](N)CO)C(=O)N[C@@H](CCC(N)=O)C(=O)N1CCC[C@H]1C(=O)N[C@@H](CCCNC(=N)N)C(=O)N[C@@H](CC(C)C)C(=O)N1CCC[C@H]1C(=O)N[C@@H](CCC(N)=O)C(=O)N[C@@H](Cc1cnc[nH]1)C(=O)O | 15

From ChEMBL document CHEMBL1156521, “Three-dimensional structure of the EphB2 receptor in complex with an antagonistic peptide reveals a novel mode of inhibition” (J Biol Chem, 2007)
